{
  "source": "patent US20160339079A1",
  "about": "“TRANSMUCOSAL AND TRANSEPITHELIAL DRUG DELIVERY SYSTEM” (UNIVERSITY OF BIRMINGHAM, priority 2014, published 2016)",
  "key": {"Retinal Ganglion Cells": {"tested_on": "Retinal Ganglion Cells", "type": "cell-based, rats", "experimental": "The cells were studied against several cell lines for any cytotoxic effects they might induce. Dissociated retinal cultures were prepared from rats and plated onto culture plates. The cells were treated with nanosome peptide and then incubated for 72 hours and fixed with formaldehyde. The cells were stained with β3 tubulin and imaged on the fluorescence microscope. The positive cells were counted and comparisons were taken."}, "[1]": {"tested_on": "primary rat meningeal fibroblast cells", "type": "cell-based, Sprague-Dawley Rats", "experimental": "The nanosome toxicity was also tested against primary rat meningeal fibroblast cells. The cells were isolated from Sprague-Dawley Rats. The leptomeninges was removed from the rat and the meningeal fibroblast cells were isolated from the tissue. The cells were then plated out and treated with nanosome. The cell media was supplemented with resazurin for 2 hours and then harvested and the media fluorescence read at 570 nm. The cell samples were then frozen in deionised water for DNA analysis (FIG. 7). […] This supports the work carried out in the retinal cultures that the nanosomes are not toxic."}, "[2]": {"tested_on": "gram positive and gram negative bacteria", "test": "Broad spectrum antibacterial activity", "type": "cell-based", "conditions": "both gram positive and gram negative bacteria", "experimental": "It is effective at killing both gram positive and gram negative bacteria and was particularly selective against pseudomonas aeruginosa with a MIC of 0.03 mg/mL."}},
  "data": [
    {"compound": "N=C(N)NCCC[C@H](NC(=O)[C@H](CCCNC(=N)N)NC(=O)[C@H](CCCNC(=N)N)NC(=O)[C@H](CCCNC(=N)N)NC(=O)[C@H](CCCNC(=N)N)NC(=O)[C@H](CCCNC(=N)N)NC(=O)CCCCCNC(=S)Nc1ccc2c(c1)C(=O)OC21c2ccc(O)cc2Oc2cc(O)ccc21)C(=O)O", "note": "[nanosome, RRRRRR-Linker-FITC]", "values": [
      {"measurement": "β3 tubulin positive cells, treated wells versus control", "setting": "Retinal Ganglion Cells", "value": "no significant difference"},
      {"measurement": "effect on the number of cells in the sample (DNA assay)", "setting": "[1]", "value": "did not have a significant effect"},
      {"measurement": "killing of bacteria", "setting": "[2]", "value": "highly effective broad spectrum antibacterial agent"}
    ]}
  ]
}
